Laboratory results as given in article PMC8366683 (Future oncology (London, England), 2013).
Like-named read-outs stand apart in the source and are kept apart here.

Key:
KB-3-1 = assay: cells; settings: Homo sapiens, KB 3-1, 72 h, read-out: IC50 ± SD^†; nM (resistance fold) / KB-3-1
KB-C2 = assay: cells; settings: Homo sapiens, KB-C2, 72 h, read-out: IC50 ± SD^†; nM (resistance fold) / KB-C2
HEK/ABCB1 = assay: cells; settings: 72 h, read-out: IC50 ± SD^†; nM (resistance fold) / HEK/ABCB1
HEK293/pcDNA3.1 [1] = assay: cells; settings: Homo sapiens, HEK293, 72 h, read-out: IC50 ± SD^†; nM (resistance fold) / HEK293/pcDNA3.1
HEK293/pcDNA3.1 [2] = assay: cells; settings: Homo sapiens, HEK293, 72 h, read-out: IC50 ± SD^†; nM (resistance fold) / HEK293/pcDNA3.1; remark: listed apart in the source
ABCG2-482-R2 = assay: cells; settings: 72 h, read-out: IC50 ± SD^†; nM (resistance fold) / ABCG2-482-R2
ABCG2-482-G2 = assay: cells; settings: 72 h, read-out: IC50 ± SD^†; nM (resistance fold) / ABCG2-482-G2
ABCG2-482-T7 = assay: cells; settings: 72 h, read-out: IC50 ± SD^†; nM (resistance fold) / ABCG2-482-T7
ABCB1 (P-glycoprotein) = ABCB1 (P-glycoprotein) (Homo sapiens, UniProt P08183); assay: competition of […]-IAAP photoaffinity labeling; format: binding
Chain of ABCB1 (P-glycoprotein) (P08183 whole entry): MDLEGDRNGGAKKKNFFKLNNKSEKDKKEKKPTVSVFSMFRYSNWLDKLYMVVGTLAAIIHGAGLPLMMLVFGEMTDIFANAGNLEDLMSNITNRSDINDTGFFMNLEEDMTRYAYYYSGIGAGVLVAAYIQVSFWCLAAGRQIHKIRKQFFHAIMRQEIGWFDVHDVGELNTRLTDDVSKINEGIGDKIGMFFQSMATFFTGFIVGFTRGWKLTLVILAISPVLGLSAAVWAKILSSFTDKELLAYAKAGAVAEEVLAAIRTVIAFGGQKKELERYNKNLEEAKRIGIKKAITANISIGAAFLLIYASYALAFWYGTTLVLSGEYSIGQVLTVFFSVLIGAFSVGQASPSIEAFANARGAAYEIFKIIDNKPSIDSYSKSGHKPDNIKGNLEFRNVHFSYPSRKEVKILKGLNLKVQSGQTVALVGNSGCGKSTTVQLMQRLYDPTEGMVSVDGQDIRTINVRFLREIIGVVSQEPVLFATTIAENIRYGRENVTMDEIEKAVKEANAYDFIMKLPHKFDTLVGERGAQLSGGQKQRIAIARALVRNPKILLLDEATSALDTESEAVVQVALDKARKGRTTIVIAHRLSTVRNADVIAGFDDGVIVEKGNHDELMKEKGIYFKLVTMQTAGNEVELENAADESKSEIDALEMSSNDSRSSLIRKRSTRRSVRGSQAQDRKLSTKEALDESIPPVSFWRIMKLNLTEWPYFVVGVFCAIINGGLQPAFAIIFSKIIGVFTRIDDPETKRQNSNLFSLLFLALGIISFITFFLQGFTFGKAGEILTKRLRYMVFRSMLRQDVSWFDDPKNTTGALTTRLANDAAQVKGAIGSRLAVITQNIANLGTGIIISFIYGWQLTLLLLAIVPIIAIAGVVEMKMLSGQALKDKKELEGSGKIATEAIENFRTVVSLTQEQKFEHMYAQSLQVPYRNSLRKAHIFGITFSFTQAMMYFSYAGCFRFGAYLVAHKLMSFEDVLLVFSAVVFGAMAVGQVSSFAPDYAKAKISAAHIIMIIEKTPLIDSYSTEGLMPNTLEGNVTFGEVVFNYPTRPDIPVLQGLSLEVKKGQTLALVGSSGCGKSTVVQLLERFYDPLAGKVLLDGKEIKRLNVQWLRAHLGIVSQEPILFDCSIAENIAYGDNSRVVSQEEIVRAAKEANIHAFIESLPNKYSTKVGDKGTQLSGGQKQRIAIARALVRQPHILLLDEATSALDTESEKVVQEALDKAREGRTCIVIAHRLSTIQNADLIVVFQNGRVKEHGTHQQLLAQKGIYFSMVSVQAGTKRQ

| IC50 (ABCG2-482-R2) | IC50 (ABCG2-482-G2) | IC50 (ABCG2-482-T7) | Compound | IC50 (HEK293/pcDNA3.1 [2]) | also measured |
| --- | --- | --- | --- | --- | --- |
|  |  |  | CC[C@]1(O)C[C@@H]2CN(CCc3c([nH]c4ccccc34)[C@@](C(=O)OC)(c3cc4c(cc3OC)N(C)[C@H]3[C@@](O)(C(=O)OC)[C@H](OC(C)=O)[C@]5(CC)C=CCN6CC[C@]43[C@@H]65)C2)C1 [Vinblastine] |  | IC50 (KB-3-1): 0.2 nM; IC50 (KB-C2): 34.4 nM |
|  |  |  | CC(=O)O[C@H]1C(=O)[C@@]2(C)[C@H]([C@H](OC(=O)c3ccccc3)[C@]3(O)C[C@H](OC(=O)[C@H](O)[C@@H](NC(=O)c4ccccc4)c4ccccc4)C(C)=C1C3(C)C)[C@]1(OC(C)=O)CO[C@@H]1C[C@@H]2O [paclitaxel] |  | IC50 (KB-3-1): 6.5 nM; IC50 (KB-C2): 4930 nM; IC50 (HEK/ABCB1): 8480 nM; IC50 (HEK293/pcDNA3.1 [1]): 28.3 nM |
|  |  |  | CC[C@]1(O)C[C@H]2CN(CCc3c([nH]c4ccccc34)[C@@](C(=O)OC)(c3cc4c(cc3OC)N(C=O)[C@H]3[C@@](O)(C(=O)OC)[C@H](OC(C)=O)[C@]5(CC)C=CCN6CC[C@]43[C@@H]65)C2)C1 [Vincristine] |  | IC50 (HEK/ABCB1): 1410 nM; IC50 (HEK293/pcDNA3.1 [1]): 4.1 nM |
|  |  |  | COc1cc2nccc(Oc3ccc(NC(=O)Nc4cc(C)on4)c(Cl)c3)c2cc1OC [tivozanib] |  | IC50 (ABCB1 (P-glycoprotein)): 2900 nM |
| 71.6 nM | 152 nM | 162 nM | CCc1c2c(nc3ccc(O)cc13)-c1cc3c(c(=O)n1C2)COC(=O)[C@]3(O)CC [SN-38] | 2.1 nM |  |
| 62.1 nM | 168 nM | 133 nM | COc1cccc2c1C(=O)c1c(O)c3c(c(O)c1C2=O)C[C@@](O)(C(=O)CO)C[C@@H]3O[C@H]1C[C@H](N)[C@H](O)[C@H](C)O1 [Doxorubicin] | 16.6 nM |  |

| Compound | IC50 (ABCG2-482-R2) | IC50 (ABCG2-482-G2) | IC50 (ABCG2-482-T7) | IC50 (HEK293/pcDNA3.1 [2]) | also measured |
| --- | --- | --- | --- | --- | --- |
| O=C1c2c(O)ccc(O)c2C(=O)c2c(NCCNCCO)ccc(NCCNCCO)c21 [mitoxantrone] | 167 nM | 179 nM | 190 nM | 35.7 nM |  |
